Results from patent US9657071B2, “IgE peptide vaccine” (NIPPON ZENYAKU KOGYO CO., LTD., priority 2012, dated 2017).

How the values were obtained:
[1] = tested on: human IgE; assay: Test using dog (Part 1): IgG antibody against human IgE (ELISA); format: in vivo; conditions: healthy beagles 8 months old, s.c. 1 mg five times at 2-week intervals, no adjuvant
Experimental: The peptide (M4-7-11) was concentration-adjusted to 2 mg/mL with saline, dispensed in an amount of 500 μL, and used as a vaccine. […] The vaccine administration method was subcutaneous administration of 1 mg per dose, which was performed five times at 2-week intervals. Another purpose of this test was to study the frequency of administration of the vaccine.
Dog: 4 healthy beagles (8 months old; 2 males and 2 females) were used.
Vaccine: the M4-7-11 peptide was used alone without being conjugated.
Administration method: 1 mg (500 μl, of 2 mg/mL) per dose was subcutaneously administered five times at 2-week intervals.
Evaluation: serum was collected approximately once per week, and an IgG antibody against human IgE was assayed by ELISA. Since dog IgE nonspecifically reacts with an anti-dog IgG antibody, human IgE having no nonspecific reaction was used in ELISA.
Human IgE (Athens Research And Technology, Inc.; IgE, human Myeloma Plasma) was prepared at 1 μg/mL in an immobilization buffer (0.05 M carbonate buffer, pH 9.6), then added at a concentration of 100 μL/well to an ELISA plate, and left overnight at 4° C. The immobilization plate was washed once with PBS-T (0.05%). […] Then, the measurement was performed using a plate reader (Bio-Rad Laboratories, Inc.; model 680) (dual: measurement: 450 nm, control: 570 nm). […]

[2] = tested on: dog IgE; assay: Subcutaneous administration test using rats: IgG antibody against dog IgE (ELISA); format: in vivo; conditions: 50 μg three times, no adjuvant
Experimental: The dog IgE protein (Bethyl Laboratories, Inc.; P115), the mouse IgE protein (BD Biosciences, San Jose, Calif., USA), and the human IgE protein (Athens Research And Technology, Inc.; 16-16-090705-ML) were each prepared at 1 μg/mL, 500 ng/mL, 250 ng/mL, 125 ng/mL, 62.5 ng/mL, 31.2 ng/mL, 15.6 ng/mL, 7.8 ng/mL, 3.9 ng/mL, 1.95 ng/mL, and 0.97 ng/mL in an immobilization buffer (0.05 M carbonate buffer, pH 9.6), then added at a concentration of 100 μL/well to an ELISA plate, and left overnight at 4° C. The immobilization plate was washed once with PBS-T (0.05%). A blocking solution (4× Block Ace, Snow Brand Milk Products Co., Ltd.; UK-B80) was added thereto at a concentration of 200 μL/well. The plate was blocked by incubation at 37° C. for 1.5 hours. The serum was diluted 2000-fold with a diluent (PBS-T:Block Ace=9:1) and used. The serum of an unimmunized rat was similarly diluted and used as a negative control. […] Then, the measurement was performed using a plate reader (Bio-Rad Laboratories, Inc.; model 680) (dual: measurement: 450 nm, control: 570 nm).
This peptide was used in the immunization of rats without the use of an adjuvant, and antibody response to dog IgE was evaluated. […]
Blood was collected every 2 weeks from the administer start date. […] Serum was collected, and an IgG antibody against dog IgE was evaluated by ELISA (FIG. 16). […]

KKTSVSASQWYTKHHNNATT (listed as Mus musculus) [M4-7-11]
level of the IgG antibody against IgE [1]: confirmed to elevate
level of the IgG antibody against IgE ([1]; listed as M4-11-17): a rise in the level of the IgG antibody against IgE
level of the rat IgG antibody against dog IgE ([2]; intravenous): confirmed to elevate
level of the rat IgG antibody against dog IgE ([2]; subcutaneous): confirmed to elevate
